Laboratory results from article PMC8293625, “HLA class-I-peptide stability mediates CD8^+ T cell immunodominance hierarchies and facilitates HLA-associated immune control of HIV” (Cell Reports, 2021).

Key:
[1] = target: Soluble HLA-A*0301 monomer (heavy chain and β2-microglobulin); test: differential scanning fluorimetry (thermal denaturation)
[2] = target: HLA-A*0301 on TAP-deficient mono-allelic 721.221 cells (human | human (endogenous in 721.221)); test: flow cytometry on cells
HLA-B*5701 [3] = target: T1, HLA-B*5701 (Homo sapiens, UniProt P01889, D201E/D98Y/E176V/E187L/E204Q/E69M/E70A/G107R/I90N/K202T/L105A/L119I/N104I/N87E/Q89R/Q94S/R106L/R155S/R180L/R86G/S101N/S121V/S35A/S48A/T118I/V36M/Y140S/Y91M); test: Cell-based HLA class I-peptide concentration-based stability assay (TAP-deficient mono-allelic 721.221 cells); details: section B*57, TAP-deficient mono-allelic 721.221 cells, relative anti-HLA MFI
Procedure: (§5) Controls without peptide, but the corresponding concentration of DMSO, were performed in parallel.

HLA-B*5701 [4] = target: T1, HLA-B*5701; test: Thermal denaturation (differential scanning fluorimetry) of soluble HLA class I-peptide monomers; assay type: binding; details: DSF, 2 μM pMHC, SYPRO orange; representative, performed twice as technical triplicates (Fig S4B)
Procedure: (§1) To confirm these observations and further validate the cell-based stability assay, we used an orthogonal approach to evaluate the relationship between HLA class-I-peptide stability and ID by assessing thermal denaturation of soluble HLA class-I-peptide complexes ([Hellman et al., 2016]). In this assay, soluble HLA class-I monomers with bound peptide are incubated in the presence of an environmentally sensitive fluorescent molecule whose fluorescence is enhanced when bound to exposed hydrophobic surfaces during protein unfolding. As a result, the thermal stability (Tm, defined as the temperature at which 50% of the protein is unfolded) of an HLA class-I-peptide complex can be determined by fluorometric measurements during incremental temperature increases, which serve as a proxy for the stabilizing capacity of a bound epitope ([Hellman et al., 2016]).
(§2) This relative difference in Tm between ID and SubD epitopes was also observed for HLA-A^∗02 and HLA-B^∗57 (Figure S4) and collectively was statistically significant (Figure 3C).
(§3) Expression, refold and purification of the soluble constructs of the pMHCs were performed as previously described ([Pierce et al., 2014]). Briefly, the HLA-A^∗02, HLA-A^∗03 and HLA-B^∗57 heavy chains, and β2-microglobulin were expressed in Escherichia coli and purified as inclusion bodies (IBs). The IBs were solubilized in 8M Urea. Target peptides were provided by the MGH Peptide Core. […]
(§4) Differential scanning fluorimetry was performed using a Bio-RAD CFX96 real time PCR system as previously described. Briefly, the excitation and emission wavelengths were set to 587 and 607 nm respectively, and the fluorescence intensity was measured after every 1°C rise in temperature starting from 20°C and going up to 95°C. […] Apparent Tm values were calculated by identifying the point at which the melting transition was 50% complete.

[5] = system: HLA class-I alleles A*0101, A*0201, A*0301, A*2402, B*0702, B*0801, B*1402, B*1501, B*2705, B*3501, B*3901, B*4001, B*4402, B*5201, B*5701, B*5801, B*8101 …; assay type: cell-based, human; details: section B*58, TAP-deficient mono-allelic 721.221 cells, relative anti-HLA MFI
HLA-A*0301 [6] = target: T2, HLA-A*0301 (Homo sapiens, UniProt P04439); test: Cell-based HLA class I-peptide concentration-based stability assay (TAP-deficient mono-allelic 721.221 cells)
Procedure: as §5

HLA-A*0301 [7] = target: T2, HLA-A*0301; test: Thermal denaturation (differential scanning fluorimetry) of soluble HLA class I-peptide monomers; assay type: binding; details: DSF, 2 μM pMHC, 10mM HEPES pH 7.4, 150 mM NaCl, SYPRO orange, 20–95°C in 1°C steps; representative (Fig 3B)
Procedure: as §1, §2, §3, §4

Substance: HIV A*03-restricted RK9 epitope ([…], Gag p17 20-28) (peptide)
- Tm of the HLA-peptide complex [1]: 53 °C
- percent stable HLA-peptide complexes on the surface after 4 h at 37°C with BFA [2]: 40%

Substance: HTQGYFPDW [HW9]
- Relative HLA MFI (10 uM) (HLA-B*5701 [3]; peptide 10 uM): 0.3192
- Relative HLA MFI (100 uM) (HLA-B*5701 [3]; peptide 100 uM): 0.6623
- thermal stability (Tm) of HLA-B*5701-peptide complex (HLA-B*5701 [4]): 57 °C
- Relative HLA MFI (10 uM) ([5]; peptide 10 uM): 0.6285
- Relative HLA MFI (100 uM) ([5]; peptide 100 uM): 1

Substance: RLAFHHVAR [RR9]
- Relative HLA MFI (10 uM) (HLA-A*0301 [6]; HLA A*03 mono-allelic TAP-deficient 721.221 cells, peptide 10 uM, relative anti-HLA MFI): 0.003513
- Relative HLA MFI (100 uM) (HLA-A*0301 [6]; HLA A*03 mono-allelic TAP-deficient 721.221 cells, peptide 100 uM, relative anti-HLA MFI): 0.03204
- anti-HLA MFI (HLA-A*0301 surface stabilization) (HLA-A*0301 [6]; HLA-A*0301 + sgRNA TAP cells (Fig 3A), peptide concentration not given): 123
- thermal stability (Tm) of HLA-A*0301-peptide complex (HLA-A*0301 [7]): 44 °C
